According to patent US7683185B2, “Histone deacetylase inhibitors” (Queen Mary & Westfield College, priority 2002, dated 2010):
Read-outs that look alike come from different tables or passages of the source.

How the values were obtained:
[1] = test system: T1, whole cell HDAC activity (CEM cells); test: Whole cell HDAC activity assay in intact CEM cells (MAL substrate); format: cell-based
T1 construct: other: intact CEM cells
Experimental: The fluorescent substrate MAL has been used in a novel assay established and validated by Dr. Joel for the determination of HDAC activity in intact cells.
1×10^6 CEM cells in 1 ml medium were exposed to inhibitors at 6 concentrations for 60 minutes, after which MAL at 20 μg/ml (5 μg/mL final concentration) was added for a further 30 minutes, all at 37° C. Cells were then rapidly washed at 4° C., lysed by sonication, the reaction stopped with acetonitrile, and MAL and the deacetylated product determined in the supernatant by rapid HPLC.
Chromatographic separation of MAL and ML was carried out using a 15 cm Apex ODS 5 μM column with acetonitrile/distilled water (40:60), 2% trifluoracetic acid (TFA) v/v mobile phase at a flow rate of 1.2 ml/minute.
The activity of each inhibitor was assessed at a minimum of 5 non-zero concentrations. MAL and ML peak heights were used to derive the percentage MAL in the mixture as the ration of MAL: MAL+ML.

rat liver HDAC = test: HDAC activity assay with partially purified rat liver HDAC enzyme (MAL substrate); format: biochemical
Experimental: The activity of the compounds as inhibitors of histone deacetylase was investigated using a modified assay based on a rapid in vitro HDAC activity assay (based on the deacetylation of an Ω-acetylated lysine (MAL)) and described by Hoffman et al. in Nucl. Acids. […] The reaction was terminated with 100 μl acetonitrile, and MAL and the deacetylated produce (ML) were determined in the supernatant. […] MAL and ML peak heights were used to derive the percentage MAL in the mixture as the ration of MAL: MAL+ML.

[2] = test system: whole cell HDAC activity (CEM cells); test: Whole cell HDAC assay modified for 24-hour incubation with CEM cells as indicator of in vitro compound stability
CEM cells = test: Percentage viability in CEM cells (3-day exposure); format: cell-based
[3] = intact CEM cells, inhibitor 60 minutes then MAL 30 minutes, read-out: HDAC inhibitory activity (IC50) μM CEM cells
[4] = rat liver HDAC preparation, 60 minutes at 37° C., read-out: HDAC inhibitory activity (IC50) μM Liver preparation
[5] = CEM cells (Table 2), read-out: HDAC inhibitory activity CEM cells (IC50)
[6] = Homo sapiens, CCRF-CEM, 72 h, Table 2, CEM cells, 3-day exposure, read-out: % Viability (IC50)
[7] = intact CEM cells, read-out: HDAC activity IC50, CEM cells
[8] = rat liver HDAC, read-out: HDAC activity IC50, rat liver HDAC

| Compound | IC50 [1, 3] [µM] | IC50 (rat liver HDAC; [4]) [µM] | IC50 [1, 5] [µM] | decrease in HDAC inhibitory activity between 1 and 24 hours incubation [2] | IC50 [1, 7] [µM] | IC50 (rat liver HDAC; [8]) [µM] | IC50 (CEM cells; [6]) [µM] | other results |
| --- | --- | --- | --- | --- | --- | --- | --- | --- |
| O=C(/C=C/C=C/CS(=O)(=O)c1ccccc1)NO [CM4, 6-benzenesulfonyl-hexa-2,4-dienoic acid hydroxamide] | 3.3 ± 1.3 | 0.8 ± 0.3 | – | – | – | – | – | – |
| CC(/C=C/C(=O)NO)=C\[C@@H](C)C(=O)c1ccc(N(C)C)cc1 [trichostatin, Trichostatin A, reference compound] | – | – | – | greater than 90% | – | – | – | IC50 (CEM cells; Homo sapiens, CCRF-CEM, 72 h, read-out: % viability (IC50) μM): 0.082 ± 0.011 µM |
| sodium phenyl-butyrohydroxamic acid [NaPBHA, reference compound] | – | – | – | – | 158 ± 99 | 6.2 ± 2 | – | IC50 (CEM cells; CEM cells, 3-day exposure, read-out: IC50 values for percentage viability): 138 ± 28 µM |

The next lines start with results.

| IC50 [1, 3] [µM] | IC50 (rat liver HDAC; [4]) [µM] | IC50 [1, 5] [µM] | decrease in HDAC inhibitory activity between 1 and 24 hours incubation [2] | IC50 [1, 7] [µM] | IC50 (rat liver HDAC; [8]) [µM] | Compound | IC50 (CEM cells; [6]) [µM] | other results |
| --- | --- | --- | --- | --- | --- | --- | --- | --- |
| 1.2 ± 0.4 | 0.4 ± 0.1 | 1.58 | no decrease in activity | – | – | O=C(/C=C/C=C/C[S+]([O-])c1ccc(Cl)cc1)NO (stereo not drawn) [UCL 2002, 6-(4-Chlorobenzenesulfinyl)-hexa-2,4-dienoic acid hydroxyamide] | 1.57 | IC50 (rat liver HDAC; purified liver HDAC (Table 2), read-out: HDAC inhibitory activity Purified liver (IC50)): 0.31 µM |
| – | – | 1.28 | no decrease in activity | – | – | O=C(CCCCC[S+]([O-])c1ccc(Cl)cc1)NO (stereo not drawn) [UCL 2007, 6-(4-Chloro-benzenesulfinyl)-hexanoic acid hydroxyamide] | 2.56 | – |
| – | – | – | – | 47 ± 17 | 0.8 ± 0.7 | CC=CC=CC(=O)NO [hexa-2,4-dienic acid hydroxamide, reference compound] | – | – |
